The record followed here is the PolyMetriX glass transition set.

The compound `*C(=O)Nc1ccc(Oc2ccc(-c3ccc(Oc4ccc(NC(=O)c5ccc6c(c5)C(=O)N(c5ccc(Oc7ccc(C(C)(C)c8ccc(Oc9ccc(N%10C(=O)c%11ccc(*)cc%11C%10=O)cc9)cc8)cc7)cc5)C6=O)cc4)cc3)cc2)cc1` (repeat unit) returned a glass transition temperature of 283.00 °C.
For the compound `*C(=O)Nc1ccc(Oc2ccc(C(C)(C)c3ccc(Oc4ccc(NC(=O)c5ccc6c(c5)C(=O)N(c5ccc(Oc7cccc(N8C(=O)c9ccc(*)cc9C8=O)c7)cc5)C6=O)cc4)cc3)cc2)cc1` (repeat unit), the glass transition temperature was found to be 207.00 °C.
As for `*C(=O)Nc1ccc(Oc2ccccc2-c2ccccc2Oc2ccc(NC(=O)c3ccc4c(c3)C(=O)N(c3ccc(Oc5ccc(C(C)(C)c6ccc(Oc7ccc(N8C(=O)c9ccc(*)cc9C8=O)cc7)cc6)cc5)cc3)C4=O)cc2)cc1` (repeat unit), the glass transition temperature was 229.00 °C.
Compound `*C(=O)c1ccc2c(c1)C(=O)N(c1ccc(C(=O)c3cccc(C(=O)c4ccc(N5C(=O)c6ccc(*)cc6C5=O)cc4)c3)cc1)C2=O` (repeat unit) gave a glass transition temperature of 276.00 °C.
For the compound `*CCCCCCN1C(=O)C(=O)N(c2ccc(Oc3ccc(N4C(=O)C(=O)N(*)C4=O)cc3)cc2)C1=O` (repeat unit), the glass transition temperature was determined as 172.00 °C.
Take `*Cc1cccc(CNC(=O)/C=C(\C)C(=O)N*)c1` (repeat unit): the glass transition temperature came out at 135.00 °C.
The compound `*Oc1ccc(C(=O)c2cccc(-c3cccc(C(=O)c4ccc(*)cc4)c3)c2)cc1` (repeat unit) yielded a glass transition temperature of 123.00 °C.
To `*Oc1ccc(N(c2ccc(OC)cc2)c2ccc3ccc(N(c4ccc(*)cc4)c4ccc(OC)cc4)cc3c2)cc1` (repeat unit) belongs 197.00 °C; to `*Oc1ccc(N(c2ccc(OCCCCCC)cc2)c2ccc(-c3ccc(N(c4ccc(*)cc4)c4ccc(OCCCCCC)cc4)cc3)cc2)cc1` (repeat unit), 105.00 °C.
The compound `*Oc1ccc(NC(=O)c2ccc(Oc3ccc(C(C)(C)c4cccc(C(C)(C)c5ccc(Oc6ccc(C(=O)Nc7ccc(Oc8ccc(C(C)(C)c9ccc(*)cc9)cc8)cc7)cc6)cc5)c4)cc3)cc2)cc1` (repeat unit) showed a glass transition temperature of 147.00 °C.
In turn, `*Oc1ccc(Oc2ccc(C(=O)c3cccc(-c4cccc(C(=O)c5ccc(*)cc5)c4)c3)cc2)cc1` (repeat unit) yielded a glass transition temperature of 154.00 °C.
Regarding `*Oc1ccc(Oc2ccc(Oc3ccc(C(C)(C)c4ccc(*)cc4)cc3)cc2)cc1` (repeat unit), the glass transition temperature turned out to be 122.00 °C.
Consider `*Oc1ccc(Oc2ccc(P(C)(=O)c3ccc(*)cc3)cc2)cc1` (repeat unit), for which the glass transition temperature worked out at 213.00 °C.
On to `*Oc1ccc(Oc2ccc(S(=O)(=O)c3ccc(-c4ccc(S(=O)(=O)c5ccc(*)cc5)cc4)cc3)cc2)cc1` (repeat unit), for which the glass transition temperature worked out at 251.00 °C.
`*Oc1ccc(P(=O)(c2ccccc2)c2ccc(*)cc2)cc1` (repeat unit) registered a glass transition temperature of 240.00 °C.
Regarding `*Oc1ccc(P(C)(=O)c2ccc(*)cc2)cc1` (repeat unit), the glass transition temperature was 238.00 °C.
The compound `*Oc1ccc(P(C)(=O)c2ccc(Oc3ccc(P(=O)(c4ccccc4)c4ccc(*)cc4)cc3)cc2)cc1` (repeat unit) yielded a glass transition temperature of 238.00 °C.
The compound `*Oc1ccc(S(=O)(=O)c2ccc(Oc3ccc(/C=C4\CCCC/C(=C\c5ccc(Oc6ccc(S(=O)(=O)c7ccc(Oc8ccc(C(C)(C)c9ccc(*)cc9)cc8)cc7)cc6)cc5)C4=O)cc3)cc2)cc1` (repeat unit) came in with a glass transition temperature of 188.00 °C.
For `*Oc1ccc(S(=O)(=O)c2ccc(Oc3ccc(S(=O)(=O)c4ccc(-c5ccc(-c6ccc(S(=O)(=O)c7ccc(*)cc7)cc6)cc5)cc4)cc3)cc2)cc1` (repeat unit), the glass transition temperature came out at 281.00 °C.
Compound `*Oc1ccc2ccc(Oc3ccc(C(=O)Nc4ccc(Oc5ccc(C(C)(C)c6ccc(Oc7ccc(NC(=O)c8ccc(*)cc8)cc7)cc6)cc5)cc4)cc3)cc2c1` (repeat unit) registered a glass transition temperature of 143.00 °C.
In turn, `*Oc1ccc2ccc(Oc3ccc(C(=O)Nc4ccc(Oc5ccc(C(C)(c6ccccc6)c6ccc(Oc7ccc(NC(=O)c8ccc(*)cc8)cc7)cc6)cc5)cc4)cc3)cc2c1` (repeat unit) registered a glass transition temperature of 177.00 °C.
For the compound `*c1ccc(CCc2ccccc2N2C(=O)C(=O)N(c3ccc(Oc4ccc(N5C(=O)C(=O)N(*)C5=O)cc4)cc3)C2=O)cc1` (repeat unit), the glass transition temperature was determined as 208.00 °C.
To `*c1ccc(Oc2ccc(C(=O)c3cccc(C(=O)c4ccc(Oc5ccc(-c6cc(*)n(-c7ccccc7)n6)cc5)cc4)c3)cc2)cc1` (repeat unit) belongs 190.00 °C; to `*c1ccc(Oc2ccc(C(C)(C)c3ccc(Oc4ccc(N5C(=O)C6CCC(C7CCC8C(=O)N(*)C(=O)C8C7)CC6C5=O)cc4)cc3)cc2)cc1` (repeat unit), 225.00 °C; to `*c1ccc(Oc2ccc(C(C)(C)c3ccc(Oc4ccc(N5C(=O)C6CCC7C(=O)N(*)C(=O)C7C6C5=O)cc4)cc3)cc2)cc1` (repeat unit), 263.50 °C.
In turn, `*c1ccc(Oc2ccc(C3(c4ccc(Oc5ccc(-c6cccc(*)n6)cc5C(F)(F)F)cc4)c4ccccc4-c4ccccc43)cc2)c(C(F)(F)F)c1` (repeat unit) showed a glass transition temperature of 182.50 °C.
As for `*c1ccc(Oc2ccc(C3(c4ccc(Oc5ccc(-c6nnc(*)c7c(-c8ccc(F)cc8)c(-c8ccc(F)cc8)c(-c8ccc(F)cc8)c(-c8ccc(F)cc8)c67)cc5)cc4)c4ccccc4-c4ccccc43)cc2)cc1` (repeat unit), the figure is 321.00 °C; as for `*c1ccc(Oc2ccc(C3(c4ccc(Oc5ccc(-c6nnc(*)c7c(-c8ccccc8)c(-c8ccc9ccccc9c8)c(-c8ccc9ccccc9c8)c(-c8ccccc8)c67)cc5)cc4)c4ccccc4-c4ccccc43)cc2)cc1` (repeat unit), 334.00 °C; as for `*c1ccc(Oc2ccc(C3(c4ccc(Oc5ccc(N6C(=O)c7ccc(Oc8ccc(C9(c%10ccc(Oc%11ccc%12c(c%11)C(=O)N(*)C%12=O)cc%10)CCC(c%10ccccc%10)CC9)cc8)cc7C6=O)cc5)cc4)CCC(C(C)(C)C)CC3)cc2)cc1` (repeat unit), 243.00 °C.
To `*c1ccc(Oc2ccc(N3C(=O)C(C)C(SCCOCCSC4C(=O)N(c5ccc(Oc6ccc(N7C(=O)CC(C)(SCCOCCSC8(C)CC(=O)N(*)C8=O)C7=O)cc6)cc5)C(=O)C4C)C3=O)cc2)cc1` (repeat unit) belongs 145.00 °C; to `*c1ccc(Oc2ccc(N3C(=O)c4c(c(-c5ccccc5)c(-c5ccc(-c6c(-c7ccccc7)c7c(c(-c8ccccc8)c6-c6ccccc6)C(=O)N(*)C7=O)cc5)c(-c5ccccc5)c4-c4ccccc4)C3=O)cc2)cc1` (repeat unit), 413.00 °C; to `*c1ccc(Oc2ccc(N3C(=O)c4c(c(-c5ccccc5)c(-c5ccc(Oc6ccc(-c7c(-c8ccccc8)c8c(c(-c9ccccc9)c7-c7ccccc7)C(=O)N(*)C8=O)cc6)cc5)c(-c5ccccc5)c4-c4ccccc4)C3=O)cc2)cc1` (repeat unit), 360.00 °C.
To `*c1ccc(Oc2ccc(Oc3ccc(-c4ccc(Oc5ccc(Oc6ccc(C7(*)OC(=O)c8ccccc87)cc6)cc5)c5ccccc45)c4ccccc34)cc2)cc1` (repeat unit) belongs 198.00 °C.
As to `*c1ccc(Oc2ccc(Oc3ccc(-c4nc(*)nc(-c5ccccc5)n4)cc3)cc2)cc1` (repeat unit), the glass transition temperature was 244.00 °C.
As for `*c1ccc(Oc2ccc(Oc3ccc(-c4nnc(*)c5c(-c6ccc(F)cc6)c(-c6ccc(F)cc6)c(-c6ccc(F)cc6)c(-c6ccc(F)cc6)c45)cc3)cc2)cc1` (repeat unit), the figure is 309.00 °C; as for `*c1ccc(Oc2ccc(Oc3ccc(Oc4ccc(-c5nc(*)nc(-c6ccccc6)n5)cc4)cc3)cc2)cc1` (repeat unit), 203.00 °C.
`*c1ccc(Oc2ccc(Oc3ccc(P(=O)(c4ccccc4)c4ccc(Oc5ccc(Oc6ccc(-c7nc8cc9sc(*)nc9cc8s7)cc6)cc5)cc4)cc3)cc2)cc1` (repeat unit) registered a glass transition temperature of 255.00 °C.
`*c1ccc(Oc2ccc(P(C)(=O)c3ccc(Oc4ccc(C5(*)OC(=O)c6ccccc65)cc4)cc3)cc2)cc1` (repeat unit) gave a glass transition temperature of 263.00 °C.
To `*c1ccc(Oc2ccc(S(=O)(=O)c3ccc(Oc4ccc(-c5c6c(c(*)c7ccccc57)C(=O)N(C)C6=O)cc4)cc3)cc2)cc1` (repeat unit) belongs 314.00 °C; to `*c1ccc(Oc2ccc(S(=O)(=O)c3ccc(Oc4ccc(-c5c6c(c(*)c7ccccc57)C(=O)N(CCCCCCCCCCCC)C6=O)cc4)cc3)cc2)cc1` (repeat unit), 167.00 °C; to `*c1ccc(Oc2ccc(S(=O)(=O)c3ccc(Oc4ccc(-c5c6c(c(*)c7ccccc57)C(=O)N(c5ccc(C(F)(F)F)cc5)C6=O)cc4)cc3)cc2)cc1` (repeat unit), 290.00 °C.
In turn, `*c1ccc(Oc2ccc(S(=O)(=O)c3ccc(Oc4ccc(-c5c6c(c(*)c7ccccc57)C(=O)N(c5ccc(F)cc5)C6=O)cc4)cc3)cc2)cc1` (repeat unit) displayed a glass transition temperature of 300.00 °C.
`*c1ccc(S(=O)(=O)c2ccc(Oc3ccc(-c4nn(*)c(=O)c5ccccc45)c(F)c3)cc2)cc1` (repeat unit): the glass transition temperature amounted to 283.00 °C.
As for `*c1ccc2c(c1)C(=O)N(c1ccc(C(=O)Nc3ccc(Oc4ccc(C(C)(C)c5ccc(Oc6ccc(NC(=O)c7ccc(N8C(=O)c9ccc(C(*)(C(F)(F)F)C(F)(F)F)cc9C8=O)cc7)cc6)cc5)cc4)cc3)cc1)C2=O` (repeat unit), the glass transition temperature is 266.00 °C.
With `*c1ccc2c(c1)C(=O)N(c1cccc(C(=O)Nc3ccc(Oc4ccc(C(C)(C)c5ccc(Oc6ccc(NC(=O)c7cccc(N8C(=O)c9ccc(C(*)(C(F)(F)F)C(F)(F)F)cc9C8=O)c7)cc6)cc5)cc4)cc3)c1)C2=O` (repeat unit), the glass transition temperature amounted to 259.00 °C.
Consider `*c1cccc(C(=O)Nc2ccc(Oc3ccc(C(C)(C)c4ccc(Oc5ccc(NC(=O)c6cccc(N7C(=O)c8ccc(-c9ccc%10c(c9)C(=O)N(*)C%10=O)cc8C7=O)c6)cc5)cc4)cc3)cc2)c1` (repeat unit), for which the glass transition temperature was 257.00 °C.
